Source: article PMC8951016, “Computational Design and Biological Evaluation of Analogs of Lupin Peptide P5 Endowed with Dual PCSK9/HMG-CoAR Inhibiting Activity” (Pharmaceutics, 2022)

What was measured:
[1] = tested on: LDLR on HepG2 cell surface; assay: ICW, LDLR localized in cellular membranes of HepG2 (peptide alone); assay type: cell-based, human; conditions: 50 µM, vs control, average ± SD, four independent experiments in duplicate
Method: For the experiments, a total of 3 × 10^4 HepG2 cells/well were seeded in 96-well plates and treated with 4.0 μg/mL PCSK9-WT and 4.0 μg/mL PCSK9 + peptides P5 and/or P5 analogs (50 µM) and vehicle (H2O) for 2 h at 37 °C under 5% CO2 atmosphere. Thus, cells underwent to ICW assay following conditions already optimized. See Supplementary Materials for detailed information. […]
cLex Co., Nagano, Japan). The peptides (P5, P5-Best, P-H6A, and P5-S7A) were synthe-sized by the company GeneScript (Piscataway, NJ, USA) at >95% purity. The antibody against HMG-CoAR was bought from Abcam (Cambridge, UK). […]
HMG-CoAR Aactivity Assay. […] Subsequently, the samples were mixed and the absorbance at 340 nm read by the microplate reader Synergy H1 (Winooski, VT, USA) at time 0 and 10 min. The HMG-CoAR-dependent oxidation of NADPH and the inhibition properties of peptides were measured by absorbance reduction, which is directly proportional to enzyme activ- […]
In Vitro PCSK9-LDLR Binding Assay. […] The reaction was stopped with 2.0 M sulfuric acid and the absorbance at 450nm was measured using the Synergy H1 fluorescent plate reader […]

PCSK9 = tested on: PCSK9; design: method as in 3 sources, ref 49 = [49]; PMID 35011066; doi:10.3390/nu14010193; 49. Macchi C. Greco M.F. Ferri N. Magni P. Arnoldi A. Corsini A. Sirtori C.R. Ruscica M. Lammi C. Impact of Soy β-Conglycinin Peptides on PCSK9 Protein Expression in HepG2 Cells Nutrients 2021 14 193 ||| ref 22 = [22]; doi:10.1016/j.jff.2017.02.009; 22. Zanoni C. Aiello G. Arnoldi A. Lammi C. Investigations on the hypocholesterolaemic activity of […] and LTFPGSAED, two peptides from lupin β-conglutin: Focus on LDLR and PCSK9 pathways J. Fu ||| ref 24 = [24]; PMID 33808034; doi:10.3390/nu13030863; 24. Lammi C. Aiello G. Bollati C. Li J. Bartolomei M. Ranaldi G. Ferruzza S. Fassi E.M.A. Grazioso G. Sambuy Y. Trans-Epithelial Transport, Metabolism, and Biological Activity Assessment of the Multi-; conditions: through downregulation of HNF-1α; cited from earlier work
LDL uptake, HepG2 cells = conditions: cited from earlier work
Description: In fact, in our previous paper, by applying a computational approach such as the one here applied, we designed and biologically evaluated two poly-imidazole derivatives endowed with PCSK9 inhibiting activity.

LILPKHSDAD [Peptide P5, natural peptide derived from a peptic lupin protein hydrolysate]
increase of LDLR level in cellular membranes of HepG2 [1]: 153.6 ± 16.4%
PCSK9 protein levels and secretion (P5, earlier work, words) (PCSK9): reduces the PCSK9 protein levels and its secretion
uptake of extracellular LDL by HepG2 (P5, earlier work, words) (LDL uptake, HepG2 cells): improved ability of HepG2 cells to uptake extracellular LDL
